Source: PMC8522722, “Safety and Pharmacokinetics in Human Volunteers of Taniborbactam (VNRX-5133), a Novel Intravenous β-Lactamase Inhibitor” (Antimicrobial Agents and Chemotherapy, 2021)

Tests used:
[1] = system: Enterobacterales isolates; set-up: method as in ref 13, 14 = [13]; 13 Vidales A , Hackel M , Wise M , Sahm D . 2020 . Antimicrobial activity of cefepime in combination with taniborbactam (formerly VNRX-5133) against clinical isolates of Enterobacterales collected fro || [14]; 14 Kalamatas J , Hackel M , Wise M , Sahm D . 2020 . Antimicrobial activity of cefepime in combination with taniborbactam (formerly VNRX-5133) against a 2018–2019 surveillance collection of Pseudomona; conditions: cited from earlier work
[2] = system: Pseudomonas aeruginosa isolates; set-up: method as in ref 13, 14 = [13]; 13 Vidales A , Hackel M , Wise M , Sahm D . 2020 . Antimicrobial activity of cefepime in combination with taniborbactam (formerly VNRX-5133) against clinical isolates of Enterobacterales collected fro || [14]; 14 Kalamatas J , Hackel M , Wise M , Sahm D . 2020 . Antimicrobial activity of cefepime in combination with taniborbactam (formerly VNRX-5133) against a 2018–2019 surveillance collection of Pseudomona; conditions: cited from earlier work
[3] = Multiple-ascending-dose (MAD) pharmacokinetics in plasma and urine, healthy adult volunteers; assay type: in vivo, human; conditions: for AUCtau / Cmax / CLR,SS / CLSS / Vz / t1/2 / Ae / Fe: mean (%CV); for Tmax: median (range); for t1/2: terminal elimination; for Ae / Fe: urine through the dosing interval (8 h); for AUCtau mean ratio, last dose compared to first dose: day 10 vs day 1
Experimental: Eligible subjects were randomized to receive either taniborbactam or placebo in a 3:1 ratio within dose cohorts in both the SAD and MAD parts of the study. Each dose cohort in the SAD part of the study enrolled 8 subjects, and each dose cohort in the MAD part of the study enrolled 12 subjects. In the SAD part, subjects received 62.5, 125, 250, 500, 1,000, or 1,500 mg taniborbactam as a 2-h intravenous (i.v.) infusion. In the MAD part, subjects received 2-h intravenous i.v. infusions of 250, 500, or 750 mg taniborbactam q8h over 10 days, ending after a final morning dose on day 10 (total of 28 doses).
Blood samples for assay of taniborbactam in plasma were collected predose and at 1, 2, 2.25, 2.5, 2.75, 3, 4, 6, 8, 12, 26, and 50 h after the start of drug infusion in the SAD part. For the MAD part, blood samples to determine taniborbactam plasma concentrations were collected predose and at 1, 2, 2.25, 2.5, 2.75, 3, 4, 6, and 8 h following the first dose (day 1) and predose and at 1, 2, 2.25, 2.5, 2.75, 3, 4, 6, 10, 14, and 26 h following the last dose (day 10). Urine was collected predose and at intervals of 0 to 4, 4 to 8, 8 to 24, and 24 to 48 h after the start of the infusion in the SAD part for the higher-dose groups (500 to 1,500 mg taniborbactam). For the MAD part, urine was collected through the dosing interval following the last dose using collection intervals of 0 to 4 and 4 to 8 h after the start of the infusion. At the end of each urine collection interval, the volume of each urine collection was recorded and a sample was taken.
Plasma and urine samples were assayed for taniborbactam and screened for possible metabolites. Human dipotassium ethylenediaminetetraacetic acid (K2EDTA) plasma samples were processed using protein precipitation and assayed using ultra-high-performance liquid chromatography with tandem mass spectrometric detection (LC-MS/MS). Both low- and high-range methods were developed and validated for plasma samples, with calibration ranges of 5 to 5,000 ng/ml and 100 to 100,000 ng/ml, respectively. Acidified urine samples were processed using solid-phase extraction and assayed using a validated LC-MS/MS method with a calibration range of 5.0 to 5,000 ng/ml. For both matrices, separation was accomplished using a Waters Acquity HSS T3 column (Milford, MA) at 50°C, and gradient elution using 10 mM ammonium formate with 1% formic acid as mobile phase A and 50:50:1 acetonitrile:methanol:formic acid (vol/vol/vol) as mobile phase B. A triple quadrupole mass spectrometer (API Triple Quad 5500; AB Sciex, Framingham, MA) equipped with a turbo-ion spray set was used for detection in positive ion mode, and quantification was based on multiple reaction monitoring. The internal standard used in the assays was D4-taniborbactam.
Individual subject plasma and urine taniborbactam pharmacokinetic parameters were evaluated using noncompartmental analysis methods (Phoenix WinNonlin, Certara, Princeton, NJ). Single-dose pharmacokinetic parameters were determined in the SAD part, and both single-dose (day 1) and multiple-dose (day 10) pharmacokinetic parameters were determined in the MAD part. Estimated pharmacokinetic parameters included Cmax, time to Cmax (Tmax), AUCtau, AUC0–inf, t1/2, CL, VZ, Ae, Fe, and CLR. The actual sample times were used to calculate the pharmacokinetic parameters. Calculation of λZ was based on best fit of concentrations in the observed terminal elimination phase of a profile, and statistical inclusion of any parameter based on λZ required the goodness of fit statistic (R^2) to be greater than 0.8. Pharmacokinetic data were summarized using descriptive statistics by treatment. Dose proportionality based on Cmax and AUC was determined using linear regression to calculate the slope and 90% CI and observing whether a slope of 1 was included in the confidence interval. The dose proportionality analysis included subject body weight as a covariate in the analysis.

Question: What does the source list for `NCCN[C@H]1CC[C@H](CC(=O)N[C@H]2Cc3cccc(C(=O)O)c3OB2O)CC1` [Taniborbactam]?
Answer: potentiation of cefepime activity as measured by the MIC90 [1]: at least 128 fold; potentiation of cefepime activity as measured by the MIC90 [2]: 4 fold; AUCtau ([3]; 250 mg q8h, day 1): 34,447 (17.2) h · ng/ml; Cmax ([3]; 250 mg q8h, day 1): 10,544 (18.3) ng/ml; Tmax ([3]; 250 mg q8h, day 1): 2.0 (2.0, 2.1) h; AUCtau ([3]; 250 mg q8h, day 10): 41,563 (15.1) h · ng/ml; CLR,SS ([3]; 250 mg q8h, day 10): 5.2 (17.3) liters/h; CLSS ([3]; 250 mg q8h, day 10): 6.2 (15.9) liters/h; Cmax ([3]; 250 mg q8h, day 10): 11,188 (16.5) ng/ml; Vz ([3]; 250 mg q8h, day 10): 36.0 (28.3) liters; Tmax ([3]; 250 mg q8h, day 10): 2.0 (2.0, 2.1) h; t1/2 ([3]; 250 mg q8h, day 10): 4.1 (29.3) h; Ae ([3]; 250 mg q8h, day 10): 211.0 (11.8) mg; Fe ([3]; 250 mg q8h, day 10): 84.4 (11.8) %; Fe ([3]; 250 mg q8h, day 10, listed as taniborbactam): 84.4%; AUCtau mean ratio, last dose compared to first dose ([3]; 250 mg q8h): 1.21; AUCtau ([3]; 500 mg q8h, day 1): 81,890 (14.7) h · ng/ml; Cmax ([3]; 500 mg q8h, day 1): 25,778 (15.2) ng/ml; Tmax ([3]; 500 mg q8h, day 1): 2.0 (2.0, 2.1) h; AUCtau ([3]; 500 mg q8h, day 10): 89,103 (13.8) h · ng/ml; CLR,SS ([3]; 500 mg q8h, day 10): 5.3 (14.2) liters/h; CLSS ([3]; 500 mg q8h, day 10): 5.7 (12.6) liters/h; Cmax ([3]; 500 mg q8h, day 10): 26,533 (13.0) ng/ml; Vz ([3]; 500 mg q8h, day 10): 39.8 (14.3) liters; Tmax ([3]; 500 mg q8h, day 10): 2.0 (2.0, 2.3) h; t1/2 ([3]; 500 mg q8h, day 10): 4.9 (13.3) h; Ae ([3]; 500 mg q8h, day 10): 462.2 (10.2) mg; Fe ([3]; 500 mg q8h, day 10): 92.4 (10.2) %; Fe ([3]; 500 mg q8h, day 10, listed as taniborbactam): 92.4%; AUCtau mean ratio, last dose compared to first dose ([3]; 500 mg q8h): 1.09; AUCtau ([3]; 750 mg q8h, day 1): 119,140 (18.0) h · ng/ml; Cmax ([3]; 750 mg q8h, day 1): 39,122 (23.7) ng/ml; Tmax ([3]; 750 mg q8h, day 1): 2.0 (2.0, 2.3) h; AUCtau ([3]; 750 mg q8h, day 10): 139,518 (21.6) h · ng/ml; CLR,SS ([3]; 750 mg q8h, day 10): 5.2 (28.6) liters/h; CLSS ([3]; 750 mg q8h, day 10): 5.6 (21.1) liters/h; Cmax ([3]; 750 mg q8h, day 10): 38,778 (18.2) ng/ml; Vz ([3]; 750 mg q8h, day 10): 37.4 (19.9) liters; Tmax ([3]; 750 mg q8h, day 10): 2.0 (2.0, 2.3) h; t1/2 ([3]; 750 mg q8h, day 10): 4.7 (15.4) h; Ae ([3]; 750 mg q8h, day 10): 692.2 (21.7) mg; Fe ([3]; 750 mg q8h, day 10): 92.3 (21.7) %; Fe ([3]; 750 mg q8h, day 10, listed as taniborbactam): 92.3%; AUCtau mean ratio, last dose compared to first dose ([3]; 750 mg q8h): 1.17; administered dose recovered in urine as intact drug ([3]; at steady state): approximately 90%
